In ChEMBL document CHEMBL5346945, “Discovery and Optimization of the First ATP Competitive Type-III c-MET Inhibitor” (J Med Chem, 2023):

Tests used:
[1] = Metabolic stability in Han Wistar rat hepatocytes assessed as intrinsic clearance measured per million cells at 1 uM measured at 0.5 to 2 hrs by LC-MS/MS analysis; type: ADME, cell-based, Hepatocyte; conditions: time 0.5-2 hrs, read-out: CLH
[2] = Lipophilicity, logD of compound in octanol and water at pH 7.4 measured by shake-flask method; type: physicochemical
[3] = Metabolic stability in human liver microsomes assessed as intrinsic clearance at 1 uM preincubated with NADPH for 8 mins followed by compound addition measured at 0.5 to 30 mins by LC-MS/MS analysis; type: ADME, Microsome; conditions: time 0.5-30 min, read-out: CLH
[4] = biological target: T1, Hepatocyte growth factor receptor (Homo sapiens, UniProt P08581); test: Inhibition of wild type c-MET (unknown origin) using ATP and poly(L-glutamic acid-L-tyrosine) as substrate incubated for 60 mins measured by ADP-Glo kinase assay
T1 sequence (P08581 whole entry): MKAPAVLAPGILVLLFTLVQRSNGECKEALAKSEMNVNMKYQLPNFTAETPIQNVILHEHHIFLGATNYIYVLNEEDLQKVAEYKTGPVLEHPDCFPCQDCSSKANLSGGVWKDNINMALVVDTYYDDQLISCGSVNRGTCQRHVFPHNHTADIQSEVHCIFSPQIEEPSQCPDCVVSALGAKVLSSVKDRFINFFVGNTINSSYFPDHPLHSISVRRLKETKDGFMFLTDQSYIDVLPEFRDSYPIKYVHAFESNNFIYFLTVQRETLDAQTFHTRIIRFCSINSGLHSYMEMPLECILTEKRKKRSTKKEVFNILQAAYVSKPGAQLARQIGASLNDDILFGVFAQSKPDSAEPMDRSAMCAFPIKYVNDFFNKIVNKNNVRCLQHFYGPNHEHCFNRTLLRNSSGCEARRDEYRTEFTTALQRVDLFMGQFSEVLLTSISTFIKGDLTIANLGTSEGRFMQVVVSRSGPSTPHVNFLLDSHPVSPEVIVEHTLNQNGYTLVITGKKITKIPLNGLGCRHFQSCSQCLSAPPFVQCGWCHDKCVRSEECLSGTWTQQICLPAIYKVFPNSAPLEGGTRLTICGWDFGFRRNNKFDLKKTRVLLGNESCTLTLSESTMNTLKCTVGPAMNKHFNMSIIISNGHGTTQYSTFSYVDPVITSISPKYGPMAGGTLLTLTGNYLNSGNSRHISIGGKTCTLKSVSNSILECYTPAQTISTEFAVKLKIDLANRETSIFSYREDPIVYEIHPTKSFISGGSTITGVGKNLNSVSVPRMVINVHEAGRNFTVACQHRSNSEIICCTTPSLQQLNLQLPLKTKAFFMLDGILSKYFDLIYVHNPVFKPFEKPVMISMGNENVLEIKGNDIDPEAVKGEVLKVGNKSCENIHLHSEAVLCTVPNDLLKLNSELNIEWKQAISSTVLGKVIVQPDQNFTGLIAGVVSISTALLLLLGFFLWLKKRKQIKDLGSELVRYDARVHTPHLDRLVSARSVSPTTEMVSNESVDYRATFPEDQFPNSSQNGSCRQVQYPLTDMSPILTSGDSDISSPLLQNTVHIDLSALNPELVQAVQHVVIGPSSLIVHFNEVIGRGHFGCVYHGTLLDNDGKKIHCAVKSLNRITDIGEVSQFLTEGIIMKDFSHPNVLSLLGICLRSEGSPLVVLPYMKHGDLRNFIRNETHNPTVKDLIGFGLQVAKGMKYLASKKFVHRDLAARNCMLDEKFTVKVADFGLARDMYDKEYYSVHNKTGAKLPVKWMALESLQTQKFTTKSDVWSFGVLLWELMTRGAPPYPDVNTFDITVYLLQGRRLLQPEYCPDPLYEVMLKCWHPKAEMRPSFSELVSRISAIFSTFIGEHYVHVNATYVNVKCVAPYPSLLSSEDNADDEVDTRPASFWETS

[5] = biological target: T1, Hepatocyte growth factor receptor; test: Inhibition of wild type c-MET in human NCI-H1993 cells incubated for 4 hrs measured by HTRF assay; type: cell-based
[6] = biological target: T1, Hepatocyte growth factor receptor; conditions: dose 100.0 nM
Description: Inhibition of c-MET (unknown origin) at 100 nM relative to control

[7] = biological target: T2, Tyrosine-protein kinase Mer (Homo sapiens) (UniProt Q12866); conditions: dose 100.0 nM
T2 sequence (whole entry): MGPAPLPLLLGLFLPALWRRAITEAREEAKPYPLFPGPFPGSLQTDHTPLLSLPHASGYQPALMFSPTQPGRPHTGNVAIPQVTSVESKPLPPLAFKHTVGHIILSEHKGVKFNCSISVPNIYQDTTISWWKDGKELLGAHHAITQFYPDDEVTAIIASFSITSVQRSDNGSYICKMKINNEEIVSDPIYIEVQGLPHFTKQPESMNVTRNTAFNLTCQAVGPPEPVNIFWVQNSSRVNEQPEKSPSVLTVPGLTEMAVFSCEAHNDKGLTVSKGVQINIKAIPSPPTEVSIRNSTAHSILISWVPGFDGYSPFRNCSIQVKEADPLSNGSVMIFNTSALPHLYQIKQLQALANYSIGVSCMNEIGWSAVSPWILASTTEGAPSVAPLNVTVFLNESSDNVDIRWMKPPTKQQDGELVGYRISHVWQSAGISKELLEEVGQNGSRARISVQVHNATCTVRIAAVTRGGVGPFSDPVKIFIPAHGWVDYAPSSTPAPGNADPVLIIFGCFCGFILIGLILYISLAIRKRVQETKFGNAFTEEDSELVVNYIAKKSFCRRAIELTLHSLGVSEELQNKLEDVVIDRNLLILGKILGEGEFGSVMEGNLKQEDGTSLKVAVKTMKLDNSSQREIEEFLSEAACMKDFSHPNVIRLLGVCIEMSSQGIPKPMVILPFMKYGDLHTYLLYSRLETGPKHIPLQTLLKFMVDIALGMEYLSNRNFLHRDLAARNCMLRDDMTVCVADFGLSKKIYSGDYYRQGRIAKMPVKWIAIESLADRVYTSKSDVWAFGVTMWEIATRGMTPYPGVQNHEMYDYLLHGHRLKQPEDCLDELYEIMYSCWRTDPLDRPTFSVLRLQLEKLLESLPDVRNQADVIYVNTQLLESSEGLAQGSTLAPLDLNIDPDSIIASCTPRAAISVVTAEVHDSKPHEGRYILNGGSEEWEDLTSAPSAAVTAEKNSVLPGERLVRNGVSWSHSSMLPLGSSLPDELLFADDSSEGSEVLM
Description: Inhibition of MERTK (unknown origin) at 100 nM relative to control

[8] = biological target: Macrophage-stimulating protein receptor (Homo sapiens) (UniProt Q04912); conditions: dose 100.0 nM
Macrophage-stimulating protein receptor (Homo sapiens), sequence (Q04912 25-304 limits assumed): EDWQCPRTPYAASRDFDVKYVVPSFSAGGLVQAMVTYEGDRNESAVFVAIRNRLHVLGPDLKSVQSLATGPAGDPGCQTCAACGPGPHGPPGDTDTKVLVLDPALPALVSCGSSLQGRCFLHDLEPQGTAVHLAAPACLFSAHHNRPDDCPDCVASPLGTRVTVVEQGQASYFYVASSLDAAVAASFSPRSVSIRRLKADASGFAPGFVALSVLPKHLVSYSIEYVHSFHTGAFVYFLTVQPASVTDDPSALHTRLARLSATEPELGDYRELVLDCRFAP
Macrophage-stimulating protein receptor (Homo sapiens), sequence (Q04912 310-1400 limits assumed): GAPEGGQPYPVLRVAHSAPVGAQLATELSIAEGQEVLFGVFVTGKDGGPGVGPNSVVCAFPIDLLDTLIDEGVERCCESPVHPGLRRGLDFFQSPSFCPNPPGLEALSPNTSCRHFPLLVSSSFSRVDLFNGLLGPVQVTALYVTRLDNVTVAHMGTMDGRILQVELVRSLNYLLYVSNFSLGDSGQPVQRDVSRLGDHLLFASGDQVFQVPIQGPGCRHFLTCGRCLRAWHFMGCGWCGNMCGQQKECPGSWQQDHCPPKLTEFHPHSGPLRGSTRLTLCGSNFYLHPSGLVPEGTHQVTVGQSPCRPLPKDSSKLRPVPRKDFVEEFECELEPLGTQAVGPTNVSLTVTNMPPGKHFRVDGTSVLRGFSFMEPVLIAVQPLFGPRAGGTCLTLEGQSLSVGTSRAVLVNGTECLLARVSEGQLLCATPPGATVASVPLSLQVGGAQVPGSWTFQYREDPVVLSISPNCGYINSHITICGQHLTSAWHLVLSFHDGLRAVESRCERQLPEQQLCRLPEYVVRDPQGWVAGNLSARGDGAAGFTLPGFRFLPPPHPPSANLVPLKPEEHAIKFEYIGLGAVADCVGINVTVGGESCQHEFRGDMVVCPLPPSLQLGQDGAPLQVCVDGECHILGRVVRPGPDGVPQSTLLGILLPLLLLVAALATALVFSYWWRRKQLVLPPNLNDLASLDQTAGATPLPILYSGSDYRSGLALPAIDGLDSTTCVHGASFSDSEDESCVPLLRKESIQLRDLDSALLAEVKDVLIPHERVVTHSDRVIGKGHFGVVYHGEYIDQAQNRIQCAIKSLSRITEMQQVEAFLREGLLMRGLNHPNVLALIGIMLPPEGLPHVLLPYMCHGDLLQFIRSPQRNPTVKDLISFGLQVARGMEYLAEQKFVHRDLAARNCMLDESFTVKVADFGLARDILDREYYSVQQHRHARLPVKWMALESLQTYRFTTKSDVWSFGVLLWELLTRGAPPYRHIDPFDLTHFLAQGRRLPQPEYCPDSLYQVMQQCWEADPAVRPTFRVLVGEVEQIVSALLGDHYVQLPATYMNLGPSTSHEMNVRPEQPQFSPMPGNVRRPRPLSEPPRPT
Description: Inhibition of MST1R (unknown origin) at 100 nM relative to control

[9] = biological target: T3, Tyrosine-protein kinase receptor TYRO3 (Homo sapiens) (UniProt Q06418); conditions: dose 100.0 nM
T3 sequence (whole entry): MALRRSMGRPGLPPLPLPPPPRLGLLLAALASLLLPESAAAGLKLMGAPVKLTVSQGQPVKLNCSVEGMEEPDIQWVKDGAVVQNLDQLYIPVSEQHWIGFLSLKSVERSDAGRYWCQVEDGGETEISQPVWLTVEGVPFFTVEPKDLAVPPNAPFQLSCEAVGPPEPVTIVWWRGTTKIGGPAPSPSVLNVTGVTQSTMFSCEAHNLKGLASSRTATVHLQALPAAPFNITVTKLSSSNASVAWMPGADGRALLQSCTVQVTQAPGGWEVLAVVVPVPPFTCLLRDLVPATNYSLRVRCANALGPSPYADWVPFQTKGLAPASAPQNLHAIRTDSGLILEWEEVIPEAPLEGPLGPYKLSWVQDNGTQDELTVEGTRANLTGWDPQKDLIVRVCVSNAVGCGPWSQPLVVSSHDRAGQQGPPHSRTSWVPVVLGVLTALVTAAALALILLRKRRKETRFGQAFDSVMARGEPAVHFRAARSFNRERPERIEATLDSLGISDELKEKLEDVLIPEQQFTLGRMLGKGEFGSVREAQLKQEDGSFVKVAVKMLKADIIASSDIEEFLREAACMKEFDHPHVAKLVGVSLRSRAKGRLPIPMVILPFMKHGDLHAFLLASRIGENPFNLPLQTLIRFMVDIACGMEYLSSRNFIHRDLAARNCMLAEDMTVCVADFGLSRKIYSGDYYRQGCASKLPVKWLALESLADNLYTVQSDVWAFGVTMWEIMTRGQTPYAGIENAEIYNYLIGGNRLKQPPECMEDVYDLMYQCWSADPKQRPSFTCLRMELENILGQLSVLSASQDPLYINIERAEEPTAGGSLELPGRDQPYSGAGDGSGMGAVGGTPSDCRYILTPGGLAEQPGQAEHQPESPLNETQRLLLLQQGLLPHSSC
Description: Inhibition of TYRO3 (unknown origin) at 100 nM relative to control

[10] = biological target: Tyrosine-protein kinase receptor UFO (Homo sapiens) (UniProt P30530); conditions: dose 100.0 nM
Tyrosine-protein kinase receptor UFO (Homo sapiens), sequence (P30530 whole entry): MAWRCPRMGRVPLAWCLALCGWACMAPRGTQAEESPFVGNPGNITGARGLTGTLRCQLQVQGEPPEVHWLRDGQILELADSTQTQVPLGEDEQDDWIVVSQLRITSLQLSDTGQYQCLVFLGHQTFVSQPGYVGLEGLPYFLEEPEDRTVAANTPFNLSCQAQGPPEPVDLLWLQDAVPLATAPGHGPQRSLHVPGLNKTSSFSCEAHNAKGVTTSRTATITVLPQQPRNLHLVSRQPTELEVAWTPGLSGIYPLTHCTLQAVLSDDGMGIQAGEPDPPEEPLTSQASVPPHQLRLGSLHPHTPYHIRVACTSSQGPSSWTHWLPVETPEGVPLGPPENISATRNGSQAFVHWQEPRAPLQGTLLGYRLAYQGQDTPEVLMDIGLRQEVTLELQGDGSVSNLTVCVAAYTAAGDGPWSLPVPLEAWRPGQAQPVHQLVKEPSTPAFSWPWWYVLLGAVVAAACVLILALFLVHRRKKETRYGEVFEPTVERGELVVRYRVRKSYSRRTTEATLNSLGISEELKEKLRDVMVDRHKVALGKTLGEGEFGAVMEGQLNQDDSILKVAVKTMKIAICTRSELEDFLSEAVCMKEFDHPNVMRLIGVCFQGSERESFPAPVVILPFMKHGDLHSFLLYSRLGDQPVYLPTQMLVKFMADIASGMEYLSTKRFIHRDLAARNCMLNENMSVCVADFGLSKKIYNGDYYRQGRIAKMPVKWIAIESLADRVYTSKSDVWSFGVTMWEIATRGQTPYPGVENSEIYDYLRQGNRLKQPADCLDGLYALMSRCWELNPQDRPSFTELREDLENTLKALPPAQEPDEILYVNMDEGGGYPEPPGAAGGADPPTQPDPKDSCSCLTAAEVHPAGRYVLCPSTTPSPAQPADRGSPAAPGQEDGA
Description: Inhibition of AXL (unknown origin) at 100 nM relative to control

[11] = biological target: T1, Hepatocyte growth factor receptor; test: Binding affinity to wild type c-MET (unknown origin) assessed as dissociation constant measured for 120 sec by SPR analysis
[12] = Permeability across basolateral to apical side in MDCK cells at 10 uM by LC-MS/MS analysis; type: ADME, cell-based, Canis lupus familiaris; conditions: dog, read-out: permeability
[13] = Metabolic stability in human hepatocytes assessed as intrinsic clearance measured per million cells at 1 uM measured at 0.5 to 2 hrs by LC-MS/MS analysis; type: ADME, cell-based, Hepatocyte; conditions: time 0.5-2 hrs, read-out: CLH
[14] = Oral bioavailability in Han Wistar rat plasma at 1 mg/kg, measured for 1 to 24 hrs by LC-MS/MS analysis; type: ADME, organism-based; conditions: in vivo, time 1-24 hrs
[15] = Volume of distribution at steady state in Han Wistar rat plasma at 1 mg/kg, po or 0.5 mg/kg, iv measured for 1 to 24 hrs by LC-MS/MS analysis; type: ADME, organism-based; conditions: in vivo, time 1-24 hrs
[16] = Ratio of drug concentration in brain to plasma of Han Wistar rat plasma at 2 micromol/kg per hour measured after 4 hrs by LC-MS/MS analysis; type: ADME; conditions: dose 2 µmol/kg

| SMILES | hepatocyte CLint at 1 µM [1] [µL/min/1e6 cells] | logD [2] | microsomal CLint at 1 µM [3] [µL/min/mg] | IC50 [4] [nM] | EC50 [5] [nM] | inhibition [6] [%] | inhibition [7] [%] | inhibition [8] [%] | inhibition [9] [%] | inhibition [10] [%] | Kd [11] [nM] | Papp B→A at 10 µM [12] [×10⁻⁶ cm/s] | hepatocyte CLint at 1 µM [13] [µL/min/1e6 cells] | F [14] [%] | Vdss [15] [L/kg] | K(p,uu,brain) [16] |
| --- | --- | --- | --- | --- | --- | --- | --- | --- | --- | --- | --- | --- | --- | --- | --- | --- |
| CC(c1ccccn1)n1cc(-c2cc(F)cc3c(C#N)n[nH]c23)c(=O)[nH]c1=O (stereo unspecified) | 3.08 | 2.1 | < 3 | 1200 | > 29800 | – | – | – | – | – | – | – | – | – | – | – |
| CC(c1ccc(F)cc1)n1cc(-c2cc(F)cc3c(C#N)n[nH]c23)c(=O)[nH]c1=O (stereo unspecified) | 4.4 | 3.2 | < 3 | 310 | 18700 | – | – | – | – | – | – | – | – | – | – | – |
| C#Cc1n[nH]c2c(-c3cn([C@@H](C)c4ccccn4)c(=O)[nH]c3=O)cc(F)cc12 | 6.07 | 2.7 | 18 | 16 | – | 80 | 75.3 | < 50 | < 50 | – | – | – | – | – | – | – |
| C#Cc1n[nH]c2c(-c3cn([C@@H](C)c4ccccc4)c(=O)[nH]c3=O)cc(F)cc12 | 15 | 3.4 | < 3 | 13 | 1170 | 80 | 80 | < 50 | – | < 50 | – | – | – | – | – | – |
| Cc1n[nH]c2c(-c3cn(C(C)c4ccccc4)c(=O)[nH]c3=O)cccc12 (stereo unspecified) | 37 | 2.7 | 17.8 | 430 | – | – | – | – | – | – | 180 | – | – | – | – | – |
| C#Cc1n[nH]c2c(-c3cn(C(C)c4ccccc4)c(=O)[nH]c3=O)cc(F)cc12 (stereo unspecified) | – | 3.3 | – | 31 | 1950 | – | – | – | – | – | – | 14.2 | 4.27 | 100 | 4.6 | 0.1 |
| CC(c1ccccc1)n1cc(-c2cc(F)cc3cn[nH]c23)c(=O)[nH]c1=O (stereo unspecified) | 14 | 2.5 | 4.04 | 400 | – | – | – | – | – | – | 120 | – | – | – | – | – |
| CC(c1ccccc1)n1cc(-c2cccc3cn[nH]c23)c(=O)[nH]c1=O (stereo unspecified) | 46.1 | 2.4 | 6.13 | 1300 | – | – | – | – | – | – | 240 | – | – | – | – | – |
| CC(c1ccccc1)n1cc(-c2c(F)ccc3cn[nH]c23)c(=O)[nH]c1=O (stereo unspecified) | 28.3 | 2.5 | 7.35 | 2200 | – | – | – | – | – | – | 440 | – | – | – | – | – |
| CC(c1ccccc1)n1cc(-c2cccc3c(C#N)n[nH]c23)c(=O)[nH]c1=O (stereo unspecified) | 41.4 | 2.9 | 32.7 | 500 | – | – | – | – | – | – | 200 | – | – | – | – | – |
| C#Cc1n[nH]c2c(-c3cn(C(C)c4ccccn4)c(=O)[nH]c3=O)cc(F)cc12 (stereo unspecified) | – | 2.5 | – | 55 | – | – | – | – | – | – | – | 37.9 | 1.29 | 91 | 1.6 | 0.022 |
| C[C@@H](c1ccc(F)cc1)n1cc(-c2cc(F)cc3c(C#N)n[nH]c23)c(=O)[nH]c1=O | – | 3.3 | – | 75 | – | – | – | – | – | – | – | 25.6 | 2.48 | 96 | 1.5 | 0.014 |
| CC(c1ccccc1)n1cc(-c2cccc3c(F)n[nH]c23)c(=O)[nH]c1=O (stereo unspecified) | 49.4 | 3 | 32.4 | 810 | – | – | – | – | – | – | 240 | – | – | – | – | – |
| C[C@@H](c1ccc(F)cc1)n1cc(-c2cc(F)cc3cn[nH]c23)c(=O)[nH]c1=O | – | 2.8 | – | 150 | – | – | – | – | – | – | – | 22.4 | 1.81 | 57 | 4.3 | 0.11 |
| CC(c1ccccc1)n1cc(-c2cc(F)cc3c(C#N)n[nH]c23)c(=O)[nH]c1=O (stereo unspecified) | 51.4 | 3.1 | 11.4 | 130 | – | – | – | – | – | – | 87 | – | – | – | – | – |
